We go through one molecule from PMC11191402, “High-Affinity NIR-Fluorescent Inhibitors for Tumor Imaging via Carbonic Anhydrase IX” (Bioconjugate Chemistry, 2024).

Each structure is given as a SMILES string.

As a reminder, the Kd is the concentration at which binding is half-saturated.

The experiment addresses T1, CAIX expressed in live HeLa cells (Homo sapiens, UniProt Q16790).
T1 construct: an open reading frame for the full-length CAIX protein (1–459 amino acids) without a tag; expressed in transfected cells; host or cells: HeLa cells transfected with pCMV-CAIX (TurboFect), normoxia
Nature of the experiment: NIR-fluorescent compound dosing on live HeLa cells (direct binding). The text has this:
To measure NIR-fluorescent compound binding to CAIX expressed in cancer cells, the GZ22-4 compound was applied in different concentrations to live HeLa cells grown under hypoxia and normoxia, as described in the Materials and Methods section, and was previously performed for the fluorescein-conjugated CAIX inhibitor GZ19-32.[16] […] The difference was hidden in the low signal-to-noise ratio.
To increase the amount of CAIX expression, the HeLa cells were transfected with the CAIX-encoding plasmid pCMV-CAIX. There was a dramatic increase in CAIX expression observed both in the dosing curve and fluorescence microscopy results. […] In the case of transfection, we can see both the specific CAIX-dependent signal and relatively weak nonspecific binding of the dye to unknown targets at concentrations above approximately 1 μM (shown as a dashed curve, increasing at the same concentrations as the nontransfected cell dosing curve).
Fluorescence values corresponding to the transfection effect were obtained by subtraction of nontransfected values from transfected fluorescence values, showing the resultant data points as open squares. […] However, the determination of the Kd via dosing curves at such high protein concentrations is not accurate and can only serve as an estimate of affinity.
Both assays were performed as previously described.[16] In brief, to measure fluorescent compound binding to CAIX expressed in live cells, HeLa cells were seeded in 12-well plates and either incubated in hypoxia for 3 days or transfected with the CAIX-coding plasmid pCMV-CAIX next day after seeding. The TurboFect transfection reagent (Thermo Fisher) was used for transfection. […] 150 μL of the suspension from each well was transferred to Thermo Scientific Nunc MicroWell 96-Well Optical-Bottom Plates for fluorescence and absorbance measurements. 759 nm excitation and 800 nm emission wavelengths were used to measure fluorescence on a Synergy HTX, BioTek plate reader. 650 nm wavelength was used for absorbance measurements.

For `CC1(C)C(/C=C/C2=C(Oc3ccc(CCC(=O)NCCOCCOCCOCCOCCOCCOCCOCCOCCOCCOCCOCCNC(=O)CCS(=O)(=O)c4c(F)c(F)c(S(N)(=O)=O)c(F)c4NC4CCCCCCC4)cc3)C(=C/C=C3\N(CCCCS(=O)(=O)[O-])c4ccccc4C3(C)C)/CCC2)=[N+](CCCCS(=O)(=O)[O-])c2ccccc21.[Na+]` [GZ22-4, Sodium 4-((Z)-2-((E)-2-(2-(4-(43-((2-(Cyclooctylamino)-3,5,6-trifluoro-4-sulfamoylphenyl)sulfonyl)-3,41-dioxo-7,10,13,16,19,22,25,28,31,34,37-undecaoxa-4,40-diazatritetracontyl)phenoxy)-3-((E)-2-(3,3-dimethyl-1-(4-sulfonatobutyl)-3H-indol-1-ium-2-yl)vinyl)cyclohex-2-en-1-ylidene)ethylidene)-3,3-dimethylindolin-1-yl)butane-1-sulfonate], the Kd (HeLa transfected with pCMV-CAIX, normoxia, nontransfected values subtracted, 120 nM CAIX, only an estimate of affinity, read-out: Kd from dosing curve on CAIX-transfected HeLa cells) is 1 nM. Besides, the “fluorescence signal in hypoxia vs normoxia” value (nontransfected live HeLa cells, plate reader) is “no difference in the fluorescence signal in hypoxia vs normoxia”. Also, the “concentration above which nonspecific binding of the dye to unknown targets is seen” value (transfected and nontransfected HeLa cell cultures) is > 1 µM.
